Data published in patent US20100292320A1, “BENZOFURAN ANILIDE HISTONE DEACETYLASE INHIBITORS” (Gilead Colorado, Inc., priority 2007, published 2010).

Tests used:
HDAC 6 [1] = target: T1, HDAC 6 (Homo sapiens, UniProt Q9UBN7); assay: HDAC 6 inhibition assay, fluorophore/quencher peptide substrate, no preincubation; assay type: biochemical; details: no preincubation of enzyme and compound; read-out: HDAC 6 inhibitory activity (IC50 [μM]) No preincubation
T1 sequence (Q9UBN7 1-1215): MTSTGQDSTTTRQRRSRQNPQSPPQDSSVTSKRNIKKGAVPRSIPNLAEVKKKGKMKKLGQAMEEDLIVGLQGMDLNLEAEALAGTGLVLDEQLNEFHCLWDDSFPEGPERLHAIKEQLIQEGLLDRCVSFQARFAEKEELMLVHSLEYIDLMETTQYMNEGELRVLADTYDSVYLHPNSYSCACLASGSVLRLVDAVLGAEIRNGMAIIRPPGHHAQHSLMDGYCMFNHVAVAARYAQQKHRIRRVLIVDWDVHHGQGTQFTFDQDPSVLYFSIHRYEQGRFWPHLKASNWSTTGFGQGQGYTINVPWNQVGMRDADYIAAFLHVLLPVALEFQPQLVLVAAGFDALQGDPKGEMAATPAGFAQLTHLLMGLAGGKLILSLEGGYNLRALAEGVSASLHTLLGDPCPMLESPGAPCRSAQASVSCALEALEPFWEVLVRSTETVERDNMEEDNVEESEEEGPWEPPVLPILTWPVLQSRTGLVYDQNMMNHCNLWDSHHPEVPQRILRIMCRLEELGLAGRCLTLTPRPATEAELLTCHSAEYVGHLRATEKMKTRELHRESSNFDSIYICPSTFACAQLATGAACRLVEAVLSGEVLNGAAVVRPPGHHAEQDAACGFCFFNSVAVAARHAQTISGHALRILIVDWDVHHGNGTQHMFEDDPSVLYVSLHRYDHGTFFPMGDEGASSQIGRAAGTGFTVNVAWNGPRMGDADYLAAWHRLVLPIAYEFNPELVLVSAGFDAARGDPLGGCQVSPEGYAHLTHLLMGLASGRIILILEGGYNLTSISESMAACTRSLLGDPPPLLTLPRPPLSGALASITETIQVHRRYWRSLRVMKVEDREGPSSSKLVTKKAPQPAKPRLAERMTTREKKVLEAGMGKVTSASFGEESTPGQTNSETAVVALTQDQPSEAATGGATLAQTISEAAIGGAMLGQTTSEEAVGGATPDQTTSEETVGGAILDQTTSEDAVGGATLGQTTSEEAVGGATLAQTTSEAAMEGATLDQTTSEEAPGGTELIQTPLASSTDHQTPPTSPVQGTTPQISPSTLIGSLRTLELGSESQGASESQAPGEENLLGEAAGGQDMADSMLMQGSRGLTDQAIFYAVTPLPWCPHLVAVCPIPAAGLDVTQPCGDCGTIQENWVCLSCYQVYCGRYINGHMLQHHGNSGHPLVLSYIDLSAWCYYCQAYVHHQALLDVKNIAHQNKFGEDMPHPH
Procedure: (§1) HDAC inhibitory activity of the compound of Example 1 was measured by two types of assays in which HDAC 1 and 6 were used as a target molecule. The first assay was carried out without preincubation after addition of the enzyme. The test compound was suspended in and titrated in DMSO. It was then spotted into a 384-well test plate. The enzyme, HDAC 1 or 6, was diluted in assay buffer containing 25 mM Tris-HCl (pH 8.0), 137 mM NaCl, 2.7 mM KCl, and 0.01% Tween-20 and added to the pre-spotted compound. The peptide substrate containing a fluorophore/quencher pair was diluted in the same assay buffer and added to the compound/enzyme mix initiating the reaction. The reaction incubated at room temperature for about 45 minutes. A concentrated developer solution was diluted in the assay buffer, and added to the reaction. The reaction was incubated at room temperature for about 15 minutes and relative fluorescence was read on an instrument reader.

HDAC 6 [2] = target: T1, HDAC 6; assay: HDAC 6 inhibition assay, fluorophore/quencher peptide substrate, 3-hour preincubation; assay type: biochemical; details: about 3 hours preincubation of enzyme/compound mix at room temperature; read-out: HDAC 6 inhibitory activity (IC50 [μM]) 3-hour preincubation
Procedure: (§2) The second assay is similar to the first assay described above, except that preincubation is carried out for about 3 hours after the enzyme is introduced. The test compound was suspended in, and titrated in DMSO. It was then spotted into a 384-well test plate. The enzyme, HDAC 1 or 6, was diluted in the same assay buffer as used in the previous assay and added to the pre-spotted compound. The enzyme/compound mix was incubated at room temperature for about 3 hours. The peptide substrate containing a fluorophore/quencher pair was diluted in the assay buffer and added to the compound/enzyme mix initiating the reaction. The reaction incubated at room temperature for 45 minutes. A concentrated developer solution was diluted in the assay buffer, and added to the reaction. The reaction was incubated at room temperature for about 15 minutes and relative fluorescence was read on an instrument reader.

HDAC 1 [3] = target: T2, HDAC 1 (Homo sapiens, UniProt Q13547); assay: HDAC 1 inhibition assay, fluorophore/quencher peptide substrate, 3-hour preincubation; assay type: biochemical; details: about 3 hours preincubation of enzyme/compound mix at room temperature; read-out: HDAC 1 inhibitory activity (IC50 [μM]) 3-hour preincubation
T2 sequence (Q13547 whole entry, species assumed): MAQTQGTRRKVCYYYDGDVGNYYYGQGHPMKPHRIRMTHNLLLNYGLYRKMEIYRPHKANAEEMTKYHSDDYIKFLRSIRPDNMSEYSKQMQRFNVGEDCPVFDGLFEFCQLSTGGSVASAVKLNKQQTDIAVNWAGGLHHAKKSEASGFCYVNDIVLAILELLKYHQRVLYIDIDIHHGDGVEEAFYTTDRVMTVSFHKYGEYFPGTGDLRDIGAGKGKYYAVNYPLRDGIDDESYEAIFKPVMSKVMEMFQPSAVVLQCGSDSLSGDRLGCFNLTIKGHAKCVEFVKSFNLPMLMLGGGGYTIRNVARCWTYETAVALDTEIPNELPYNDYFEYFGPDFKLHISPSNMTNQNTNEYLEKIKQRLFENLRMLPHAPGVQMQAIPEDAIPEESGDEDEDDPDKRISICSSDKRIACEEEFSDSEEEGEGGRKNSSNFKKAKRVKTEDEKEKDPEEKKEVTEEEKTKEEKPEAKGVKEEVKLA
Procedure: as §2

HDAC 1 [4] = target: T2, HDAC 1; assay: HDAC 1 inhibition assay, fluorophore/quencher peptide substrate, no preincubation; assay type: biochemical; details: no preincubation of enzyme and compound; read-out: HDAC 1 inhibitory activity (IC50 [μM]) No preincubation
Procedure: as §1

IC50 (HDAC 6 [1]): > 50 µM
IC50 (HDAC 6 [2]): > 50 µM
IC50 (HDAC 1 [3]): 0.0033 µM
melting point: 205.1 °C
IC50 (HDAC 1 [4]): 0.03 µM
Structure (SMILES): CN(C)Cc1c(C(=O)NCCOc2ccc(C(=O)Nc3ccccc3N)cc2)oc2ccccc12 [Example 1, N-(2-aminophenyl)-4-[2-(3-dimethylaminomethylbenzofuran-2-ylcarbonylamino)-ethoxy]-benzamide]
